Results reported in patent US10154667B2, “Broadleaf crop control with 6-arylpicoline carboxylic acids, 2-arylpyrimidine carboxylic acids, or salts or esters thereof” (Dow AgroSciences LLC, priority 2013, dated 2018).
Where two headings read alike, the source gives them in different places.

Assays:
Type in all cases: in vivo, Glycine max
[1] = test system: ROUNDUP READY soybeans (GLXMA); experiment: Field evaluation with various herbicides, 46 days after treatment; settings: 46 Days After Treatment
From the text: (§1) The average percent visual control of ROUNDUP READY® soybeans (GLXMA) 46 days after treatment with various herbicides with standard formulation in comparison with compound of Formula (IV) at specified rates are provided in Table 6 below. The data was the result of conducting factorial replicated field trials (4 trials) by applying the compositions at a spray pressure of 300 kPa and a spray volume of 200 L/ha. The treated plots and control plots were visually rated blind at the specified dates after application. Ratings were based on a scale of 0-100%, as discussed above, wherein 0% indicates complete growth of the undesired vegetation and 100% indicates complete prevention/eradication of the undesired vegetation.

[2] = test system: ROUNDUP READY soybeans (GLXMA); experiment: Field evaluation with various herbicides, 30 days after treatment; settings: 30 Days After Treatment
From the text: as §1, with “The” for “The average percent visual control of ROUNDUP READY® soybeans (GLXMA) 46 days after treatment with various herbicides with standard formulation in comparison with compound of Formula (IV) at specified rates are provided in Table 6 below. The”, “(3” for “(4”

[3] = test system: AAD1 GLXMA (HT variety soybean); experiment: Greenhouse evaluation of broadleaf volunteer crop control, AAD1 soybean; settings: 2 to 3 leaf stage, after 21 days, 0 no injury, 100 complete kill
Method: (§2) Test plants were grown in METRO-MIX® 360 (SunGro Horticulture, Bellevue, Wash.) in 132.7 square centimeters (cm^2) plastic pots for 7-21 days in a greenhouse with an approximate 15 hour (h) photoperiod which was maintained at about 23-29° C. during the day and 22-28° C. during the night. Plants were grown to the 2 to 3 leaf stage prior to applications. Both conventional soybean crops varieties, Maverick and Resnick, and herbicide resistant (HT) varieties AAD12, AAD1, and ROUNDUP® ready soybean crops were treated.
(§3) A weighed amount, determined by the highest rate to be tested, of each test compound was placed in a 25 milliliter (mL) glass vial and was dissolved in 4 mL of a 97:3 v/v (volume/volume) mixture of acetone and dimethyl sulfoxide (DMSO), which will be referred to as General Purpose Solvent (GPS), to obtain concentrated stock solutions. […] The concentrated stock solutions obtained were diluted with 20 mL of an aqueous mixture containing water, GPS, isopropyl alcohol, ATPLUS® 411F crop oil concentrate, and TRITON® X-155 surfactant in a 46:42:12:1.0:0.02 v/v ratio to obtain spray solutions containing the highest application rates. Additional application rates were obtained by serial dilution of 12 mL of the high rate solution into a solution containing 2 mL of 97:3 v/v (volume/volume) mixture of acetone and dimethyl sulfoxide (DMSO) and 10 mL of an aqueous mixture containing water, GPS, isopropyl alcohol, ATPLUS® 411F crop oil concentrate, and TRITON® X-155 surfactant in a 46:42:12:1.0:0.02 v/v ratio to obtain 1/2X, 1/4X, 1/8X and 1/16X rates of the high rate (X). Compound requirements are based upon a 12 mL application volume at a rate of 187 L/ha. Formulated compounds were applied to the plant material with an overhead Mandel track sprayer equipped with 8002E nozzles calibrated to deliver 187 L/ha over an application area of 0.503 square meters (m^2) at a spray height of 18 inches (43 cm) above the average plant canopy height. Control plants were sprayed in the same manner with the solvent blank. The treated plants and control plants were placed in a greenhouse as described above and watered by sub-irrigation to prevent wash-off of the test compounds. After 21 days, the condition of the test plants as compared with that of the control plants was determined visually and scored on a scale of 0 to 100 percent where 0 corresponds to no injury and 100 corresponds to complete kill, and results are listed in Table 1 along with active ingredients and their respective formulations. Each score in Table 1 represents an average obtained from results of three representative experiments.

[4] = test system: Maverick GLXMA (conventional soybean); experiment: Greenhouse evaluation of broadleaf volunteer crop control, Maverick soybean; settings: Glycine max, 504 h, read-out: Average Percent Crop Control after Treatment, Maverick GLXMA
Method: as §2, §3
(§4) Additional formulations with different 6-arylpicolinates were tested in the greenhouse on Maverick and RoundUp-ready soybean crops using the procedure described above. Each score in Table 2 represents an average obtained from results of three representative experiments.

[5] = test system: Resnick GLXMA (conventional soybean); experiment: Greenhouse evaluation of broadleaf volunteer crop control, Resnick soybean; settings: 2 to 3 leaf stage, after 21 days, 0 no injury, 100 complete kill
Method: as §2, §3

[6] = test system: AAD12 GLXMA (HT variety soybean); experiment: Greenhouse evaluation of broadleaf volunteer crop control, AAD12 soybean; settings: 2 to 3 leaf stage, after 21 days, 0 no injury, 100 complete kill
Method: as §2, §3

[7] = test system: RoundUp Ready GLXMA (HT variety soybean); experiment: Greenhouse evaluation of broadleaf volunteer crop control, RoundUp ready soybean; settings: Glycine max, 504 h, greenhouse, 2 to 3 leaf stage, after 21 days, 0 no injury, 100 complete kill, read-out: Average Percent Crop Control after Treatment, RoundUp Ready GLXMA
Method: as §2, §3, §4

Structure (SMILES)	Average Percent Crop Control after Treatment, AAD1 GLXMA ([3]; 2.2 g ae/ha)	Average Percent Crop Control after Treatment, AAD1 GLXMA ([3]; 4.4 g ae/ha)	Average Percent Crop Control after Treatment, AAD1 GLXMA ([3]; 8.75 g ae/ha)	Average Percent Crop Control after Treatment, AAD1 GLXMA ([3]; 17.5 g ae/ha)	Average Percent Crop Control after Treatment, Resnick GLXMA ([5]; 1.1 g ae/ha)	Average Percent Crop Control after Treatment, Resnick GLXMA ([5]; 2.2 g ae/ha)	Average Percent Crop Control after Treatment, Resnick GLXMA ([5]; 4.4 g ae/ha)	Average Percent Crop Control after Treatment, Resnick GLXMA ([5]; 8.75 g ae/ha)	Average Percent Crop Control after Treatment, Resnick GLXMA ([5]; 17.5 g ae/ha)	Average Percent Crop Control after Treatment, AAD12 GLXMA ([6]; 1.1 g ae/ha)	Average Percent Crop Control after Treatment, AAD12 GLXMA ([6]; 2.2 g ae/ha)	Average Percent Crop Control after Treatment, AAD12 GLXMA ([6]; 4.4 g ae/ha)	Average Percent Crop Control after Treatment, AAD12 GLXMA ([6]; 8.75 g ae/ha)	Average Percent Crop Control after Treatment, AAD12 GLXMA ([6]; 17.5 g ae/ha)	further results
COc1nc(C)nc(NC(=O)NS(=O)(=O)c2cc(I)ccc2C(=O)O)n1 [Iodosulfuron]	–	–	–	–	–	–	–	–	–	–	–	–	–	–	% Crop Control ([1]; 3.5 g ai/Ha): 90%
COc1nc(C)nc(=NC(=O)NS(=O)(=O)c2ccccc2C(=O)O)[nH]1 [Metsulfuron]	–	–	–	–	–	–	–	–	–	–	–	–	–	–	% Crop Control ([1]; 6 g ai/Ha): 98.3%; % Crop Control ([2]; 6 g ai/Ha + 1% J'Oil): 96%; % Crop Control ([2]; 6 g ai/Ha): 89.3%
C[n+]1ccc(-c2cc[n+](C)cc2)cc1 [Paraquat]	–	–	–	–	–	–	–	–	–	–	–	–	–	–	% Crop Control ([1]; 300 g ai/Ha): 85%; % Crop Control ([2]; 300 g ai/Ha): 61.7%
COc1cc(OC)n2nc(NS(=O)(=O)c3c(C(F)(F)F)ccnc3OC)nc2n1 [Pyroxsulam]	–	–	–	–	–	–	–	–	–	–	–	–	–	–	% Crop Control ([1]; 18 g ai/Ha): 98.3%
COc1c(Cl)ccc(-c2nc(C(=O)O)c(Cl)c(N)c2F)c1F [drawing 11]	87%	100%	100%	100%	83%	92%	100%	100%	100%	85%	93%	100%	100%	100%	pest or weed control at 1.1 g/ha ([4]; 1.1 g ae/ha, greenhouse, 2 to 3 leaf stage, after 21 days, 0 no injury, 100 complete kill): 87%; pest or weed control at 2.2 g/ha ([4]; 2.2 g ae/ha, greenhouse, 2 to 3 leaf stage, after 21 days, 0 no injury, 100 complete kill): 95%; pest or weed control at 4.4 g/ha ([4]; 4.4 g ae/ha, greenhouse, 2 to 3 leaf stage, after 21 days, 0 no injury, 100 complete kill): 100%; pest or weed control at 8.75 g/ha ([4]; 8.75 g ae/ha, greenhouse, 2 to 3 leaf stage, after 21 days, 0 no injury, 100 complete kill): 100%; pest or weed control at 17.5 g/ha ([4]; 17.5 g ae/ha, greenhouse, 2 to 3 leaf stage, after 21 days, 0 no injury, 100 complete kill): 100%; pest or weed control at 2.2 g/ha ([7]; 2.2 g ae/ha): 83%; pest or weed control at 4.4 g/ha ([7]; 4.4 g ae/ha): 93%; pest or weed control at 8.75 g/ha ([7]; 8.75 g ae/ha): 100%; pest or weed control at 17.5 g/ha ([7]; 17.5 g ae/ha): 100%
COc1c(Cl)ccc(-c2cc(N)c(Cl)c(C(=O)[O-])n2)c1F.[K+] [drawing 12]	100%	100%	100%	100%	99%	100%	100%	100%	100%	100%	100%	100%	100%	100%	Average Percent Crop Control after Treatment, AAD1 GLXMA ([3]; 1.1 g ae/ha): 100%; pest or weed control at 1.1 g/ha [4]: 97%
